Test results from ChEMBL document CHEMBL1681651, “A broad spectrum anticancer nucleoside with selective toxicity against human colon cells in vitro” (2011).

Experiments:
Type in all cases: functional
LOX IMVI = test: Growth inhibition of human LOXIMVI cells assessed as cell growth at 0.1 uM after 48 hrs by SRB assay; conditions: read-out: Activity
SNB-19 [1] = test: Growth inhibition of human SNB19 cells assessed as cell growth at 1 mM after 48 hrs by SRB assay; conditions: SNB-19, 48 h, read-out: Activity
[2] = Growth inhibition of human […] cells after 48 hrs by […] growth inhibition assay
SK-MEL-2 = test: Growth inhibition of human SK-MEL-2 cells after 48 hrs by […] growth inhibition assay; conditions: SK-MEL-2, 48 h
BT-549 [3] = test: Growth inhibition of human BT549 cells assessed as cell growth at 100 uM after 48 hrs by SRB assay; conditions: BT-549, 48 h, read-out: Activity
T47D = test: Growth inhibition of human T47D cells assessed as cell growth at 0.1 uM after 48 hrs by SRB assay; conditions: read-out: Activity
786-0 = test: Growth inhibition of human 786-0 cells assessed as cell growth at 1 mM after 48 hrs by SRB assay; conditions: 786-0, 48 h, read-out: Activity
HT-29 = test: Growth inhibition of human HT-29 cells assessed as cell growth at 0.1 uM after 48 hrs by SRB assay; conditions: HT-29, 48 h, read-out: Activity
SK-OV-3 = test: Growth inhibition of human SKOV3 cells after 48 hrs by […] growth inhibition assay; conditions: SK-OV-3, 48 h
NCI-H23 = test: Growth inhibition of human NCI-H23 cells assessed as cell growth at 0.1 uM after 48 hrs by SRB assay; conditions: NCI-H23, 48 h, read-out: Activity
COLO 205 = test: Growth inhibition of human COLO205 cells assessed as cell growth at 1 uM after 48 hrs by SRB assay; conditions: COLO 205, 48 h, read-out: Activity
OVCAR-5 [4] = test: Growth inhibition of human OVCAR5 cells assessed as cell growth at 10 uM after 48 hrs by SRB assay; conditions: OVCAR-5, 48 h, read-out: Activity
BT-549 [5] = test: Growth inhibition of human BT549 cells assessed as cell growth at 0.1 uM after 48 hrs by SRB assay; conditions: BT-549, 48 h, read-out: Activity
SF-268 [6] = test: Growth inhibition of human SF268 cells assessed as cell growth at 1 mM after 48 hrs by SRB assay; conditions: SF-268, 48 h, read-out: Activity
SNB-75 = test: Growth inhibition of human SNB75 cells assessed as cell growth at 1 mM after 48 hrs by SRB assay; conditions: SNB-75, 48 h, read-out: Activity
MCF7 = test: Growth inhibition of human MCF7 cells after 48 hrs by […] growth inhibition assay; conditions: MCF7, 48 h
EKVX = test: Growth inhibition of human EKVX cells assessed as cell growth at 10 uM after 48 hrs by SRB assay; conditions: read-out: Activity
U-251 = test: Growth inhibition of human U251 cells assessed as cell growth at 10 uM after 48 hrs by SRB assay; conditions: U-251, 48 h, read-out: Activity
A549 [7] = test: Growth inhibition of human A549 cells after 48 hrs by […] growth inhibition assay; conditions: A549, 48 h
HOP-62 = test: Growth inhibition of human HOP62 cells after 48 hrs by […] growth inhibition assay; conditions: HOP-62, 48 h
OVCAR-8 [8] = test: Growth inhibition of human OVCAR8 cells assessed as cell growth at 100 uM after 48 hrs by SRB assay; conditions: OVCAR-8, 48 h, read-out: Activity
UO-31 = test: Growth inhibition of human UO31 cells assessed as cell growth at 100 uM after 48 hrs by SRB assay; conditions: UO-31, 48 h, read-out: Activity
SF-268 [9] = test: Growth inhibition of human SF268 cells assessed as cell growth at 100 uM after 48 hrs by SRB assay; conditions: SF-268, 48 h, read-out: Activity
SNB-19 [10] = test: Growth inhibition of human SNB19 cells assessed as cell growth at 100 uM after 48 hrs by SRB assay; conditions: SNB-19, 48 h, read-out: Activity
OVCAR-5 [11] = test: Growth inhibition of human OVCAR5 cells after 48 hrs by […] growth inhibition assay; conditions: OVCAR-5, 48 h
OVCAR-8 [12] = test: Growth inhibition of human OVCAR8 cells assessed as cell growth at 0.1 uM after 48 hrs by SRB assay; conditions: OVCAR-8, 48 h, read-out: Activity
CCRF-CEM = test: Growth inhibition of human CCRF-CEM cells assessed as cell growth at 100 uM after 48 hrs by SRB assay; conditions: read-out: Activity
A549 [13] = test: Growth inhibition of human A549 cells assessed as cell growth at 1 mM after 48 hrs by SRB assay; conditions: A549, 48 h, read-out: Activity
TK-10 = test: Growth inhibition of human TK10 cells assessed as cell growth at 0.1 uM after 48 hrs by SRB assay; conditions: TK-10, 48 h, read-out: Activity
NCI-H226 = test: Growth inhibition of human NCI-H226 cells assessed as cell growth at 10 uM after 48 hrs by SRB assay; conditions: NCI-H226, 48 h, read-out: Activity
HCT-116 = test: Growth inhibition of human HCT116 cells assessed as cell growth at 1 uM after 48 hrs by SRB assay; conditions: HCT-116, 48 h, read-out: Activity
MOLT-4 = test: Growth inhibition of human MOLT4 cells assessed as cell growth at 10 uM after 48 hrs by SRB assay; conditions: MOLT-4, 48 h, read-out: Activity
[14] = read-out: LC50 (the source's name)
[15] = read-out: pLC50 (the source's name) (converted)

SMILES: CNC(=O)NC[C@H]1O[C@@H](n2cnc3c(NC(=O)Nc4ccccc4)ncnc32)[C@H](O[Si](C)(C)C(C)(C)C)[C@@H]1O[Si](C)(C)C(C)(C)C
- growth at 0.1 µM (LOX IMVI): 102%
- growth at 1000 µM (SNB-19 [1]): 7%
- GI50 ([2]; read-out: GI50): 3.27 µM
- CC50 [2, 14]: > 100 µM
- TGI ([2]; read-out: TGI): > 100 µM
- GI50 ([2]; read-out: pGI50 (converted)): 3.31 µM
- CC50 [2, 15]: > 100 µM
- TGI ([2]; read-out: pTGI (converted)): > 100 µM
- GI50 (SK-MEL-2; read-out: GI50): 2.45 µM
- CC50 (SK-MEL-2; [14]): > 100 µM
- TGI (SK-MEL-2; read-out: TGI): 55.4 µM
- GI50 (SK-MEL-2; read-out: pGI50 (converted)): 2.45 µM
- CC50 (SK-MEL-2; [15]): 28.2 µM
- TGI (SK-MEL-2; read-out: pTGI (converted)): 5.5 µM
- growth at 100 µM (BT-549 [3]): -10%
- growth at 0.1 µM (T47D): 101%
- growth at 1000 µM (786-0): -80%
- growth at 0.1 µM (HT-29): 102%
- GI50 (SK-OV-3; read-out: GI50): 6.88 µM
- CC50 (SK-OV-3; [14]): > 100 µM
- TGI (SK-OV-3; read-out: TGI): > 100 µM
- GI50 (SK-OV-3; read-out: pGI50 (converted)): 6.92 µM
- CC50 (SK-OV-3; [15]): > 100 µM
- TGI (SK-OV-3; read-out: pTGI): > 100 µM
- growth at 0.1 µM (NCI-H23): 100%
- growth at 1 µM (COLO 205): 111%
- growth at 10 µM (OVCAR-5 [4]): 103%
- growth at 0.1 µM (BT-549 [5]): 113%
- growth at 1000 µM (SF-268 [6]): -45%
- growth at 1000 µM (SNB-75): -12%
- GI50 (MCF7; read-out: GI50): 2.69 µM
- CC50 (MCF7; [14]): > 100 µM
- TGI (MCF7; read-out: TGI): 19.3 µM
- GI50 (MCF7; read-out: pGI50 (converted)): 2.69 µM
- CC50 (MCF7; [15]): > 100 µM
- TGI (MCF7; read-out: pTGI (converted)): 19.5 µM
- growth at 10 µM (EKVX): 104%
- growth at 10 µM (U-251): 93%
- GI50 (A549 [7]; read-out: GI50): 2.9 µM
- CC50 (A549 [7]; [14]): > 100 µM
- TGI (A549 [7]; read-out: TGI): 12.8 µM
- GI50 (A549 [7]; read-out: pGI50 (converted)): 2.88 µM
- CC50 (A549 [7]; [15]): > 100 µM
- TGI (A549 [7]; read-out: pTGI (converted)): 12.9 µM
- GI50 (HOP-62; read-out: GI50): 4.98 µM
- CC50 (HOP-62; [14]): 48 µM
- TGI (HOP-62; read-out: TGI): 17.1 µM
- GI50 (HOP-62; read-out: pGI50 (converted)): 5.01 µM
- CC50 (HOP-62; [15]): 47.9 µM
- TGI (HOP-62; read-out: pTGI (converted)): 17 µM
- growth at 100 µM (OVCAR-8 [8]): 13%
- growth at 100 µM (UO-31): -2%
- growth at 100 µM (SF-268 [9]): 8%
- growth at 100 µM (SNB-19 [10]): 29%
- GI50 (OVCAR-5 [11]; read-out: GI50): 5.24 µM
- CC50 (OVCAR-5 [11]; [14]): > 100 µM
- TGI (OVCAR-5 [11]; read-out: TGI): 25.2 µM
- GI50 (OVCAR-5 [11]; read-out: pGI50 (converted)): 5.25 µM
- CC50 (OVCAR-5 [11]; [15]): > 100 µM
- TGI (OVCAR-5 [11]; read-out: pTGI (converted)): 25.1 µM
- growth at 0.1 µM (OVCAR-8 [12]): 108%
- growth at 100 µM (CCRF-CEM): 9%
- growth at 1000 µM (A549 [13]): -30%
- growth at 0.1 µM (TK-10): 110%
- growth at 10 µM (NCI-H226): 105%
- growth at 1 µM (HCT-116): 105%

SMILES: CNC(=O)OC[C@H]1O[C@@H](n2cnc3c(NC(=O)Nc4ccccc4)ncnc32)[C@H](O[Si](C)(C)C(C)(C)C)[C@@H]1O[Si](C)(C)C(C)(C)C
- growth at 10 µM (OVCAR-5 [4]): 120%
- growth at 10 µM (EKVX): 104%
- growth at 10 µM (U-251): 86%
- growth at 10 µM (MOLT-4): 75.3%
- growth at 10 µM (NCI-H226): 93.2%
